Data as given in ChEMBL document CHEMBL3885861, “Open TG-GATES”.

Species: Rattus norvegicus
Assay: Open TG-GATES - Regimen: Single
Assay type: toxicity, organism-based, Sprague-Dawley
Parameters: regimen Single, gender Male, age 6 weeks
Conditions: in vivo, po, route gavage; for APTT / Bas / Eos / Fbg / Hb / Ht / Lym / MCH / MCHC / MCV / Mono / Neu / PT / Plat / RBC / Ret / WBC: tissue Blood; for KIDNEY_L / KIDNEY_R / KIDNEY_TOTAL: tissue Kidney; for LIVER: tissue Liver; for A/G / ALP / ALT / AST / BUN / CRE / Ca / Cl / DBIL / GLC / IP / K / LDH / Na / PL / RALB / TBIL / TC / TG / TP / gamma-GTP: tissue Plasma
[1] = 100 mg/kg, 3 h, dose level Middle
[2] = 100 mg/kg, 6 h, dose level Middle
[3] = 100 mg/kg, 9 h, dose level Middle
[4] = 100 mg/kg, 24 h, dose level Middle
[5] = 300 mg/kg, 3 h, dose level High
[6] = 300 mg/kg, 6 h, dose level High
[7] = 300 mg/kg, 9 h, dose level High
[8] = 300 mg/kg, 24 h, dose level High

CC[C@H]1[C@@H]2C[C@H]3[C@@H]4N(C)c5ccccc5[C@]45C[C@@H]([C@@H]2[C@H]5O)N3[C@@H]1O [AJMALINE]
TERMINAL_BW [1]: 195.2 g
APTT [1]: 16.3 s
Bas [1]: 0%
Eos [1]: 0.6%
Fbg [1]: 201.2 mg/dL
Hb [1]: 13.1 g/dL
Ht [1]: 40.1%
Lym [1]: 80.2%
MCH [1]: 21.8 pg
MCHC [1]: 32.7%
MCV [1]: 66.7 fL
Mono [1]: 6.8%
Neu [1]: 12.4%
PT [1]: 11.8 s
Plat [1]: 115.9 x10_4/uL
RBC [1]: 602.8 x10_4/ul
Ret [1]: 12.1%
WBC [1]: 109.1 x10_2/uL
KIDNEY_L [1]: 0.9 g
KIDNEY_R [1]: 0.9 g
KIDNEY_TOTAL [1]: 1.8 g
LIVER [1]: 9.6 g
A/G [1]: 2.4
ALP [1]: 824.8 IU/L
ALT [1]: 33.4 IU/L
AST [1]: 64.6 IU/L
BUN [1]: 11.6 mg/dL
CRE [1]: 0.4 mg/dL
Ca [1]: 11.1 mg/dL
Cl [1]: 103 meq/L
DBIL [1]: 0.052 mg/dL
GLC [1]: 198.4 mg/dL
IP [1]: 9.1 mg/dL
K [1]: 4.5 meq/L
LDH [1]: 128 IU/L
Na [1]: 138.2 meq/L
PL [1]: 140.4 mg/dL
RALB [1]: 3.6 g/dL
TBIL [1]: 0.4 mg/dL
TC [1]: 75 mg/dL
TG [1]: 65.6 mg/dL
TP [1]: 5.2 g/dL
gamma-GTP [1]: 1.6 IU/L
TERMINAL_BW [2]: 187.8 g
APTT [2]: 17 s
Bas [2]: 0%
Eos [2]: 0.6%
Fbg [2]: 193.4 mg/dL
Hb [2]: 12.9 g/dL
Ht [2]: 39%
Lym [2]: 84.2%
MCH [2]: 21.8 pg
MCHC [2]: 33.1%
MCV [2]: 66 fL
Mono [2]: 5.8%
Neu [2]: 9%
PT [2]: 12.1 s
Plat [2]: 109.9 x10_4/uL
RBC [2]: 591.4 x10_4/ul
Ret [2]: 11.2%
WBC [2]: 76.5 x10_2/uL
KIDNEY_L [2]: 0.9 g
KIDNEY_R [2]: 0.9 g
KIDNEY_TOTAL [2]: 1.8 g
LIVER [2]: 8.5 g
A/G [2]: 2.2
ALP [2]: 849 IU/L
ALT [2]: 31.6 IU/L
AST [2]: 67.8 IU/L
BUN [2]: 9 mg/dL
CRE [2]: 0.5 mg/dL
Ca [2]: 11 mg/dL
Cl [2]: 102.6 meq/L
DBIL [2]: 0.044 mg/dL
GLC [2]: 191 mg/dL
IP [2]: 9.9 mg/dL
K [2]: 4.6 meq/L
LDH [2]: 99.2 IU/L
Na [2]: 138.4 meq/L
PL [2]: 140.2 mg/dL
RALB [2]: 3.5 g/dL
TBIL [2]: 0.4 mg/dL
TC [2]: 83.6 mg/dL
TG [2]: 60.4 mg/dL
TP [2]: 5.2 g/dL
gamma-GTP [2]: 1 IU/L
TERMINAL_BW [3]: 191.7 g
APTT [3]: 16.7 s
Bas [3]: 0%
Eos [3]: 1.2%
Fbg [3]: 206 mg/dL
Hb [3]: 12.9 g/dL
Ht [3]: 39.2%
Lym [3]: 75%
MCH [3]: 21.6 pg
MCHC [3]: 32.8%
MCV [3]: 65.6 fL
Mono [3]: 7.8%
Neu [3]: 16.2%
PT [3]: 11.9 s
Plat [3]: 115.9 x10_4/uL
RBC [3]: 597 x10_4/ul
Ret [3]: 9.5%
WBC [3]: 88.2 x10_2/uL
KIDNEY_L [3]: 0.9 g
KIDNEY_R [3]: 1 g
KIDNEY_TOTAL [3]: 1.9 g
LIVER [3]: 8.1 g
A/G [3]: 2.6
ALP [3]: 786.2 IU/L
ALT [3]: 33 IU/L
AST [3]: 67.2 IU/L
BUN [3]: 11 mg/dL
CRE [3]: 0.5 mg/dL
Ca [3]: 10.3 mg/dL
Cl [3]: 104.6 meq/L
DBIL [3]: 0.066 mg/dL
GLC [3]: 190.6 mg/dL
IP [3]: 10.6 mg/dL
K [3]: 4.8 meq/L
LDH [3]: 107 IU/L
Na [3]: 138 meq/L
PL [3]: 138 mg/dL
RALB [3]: 3.7 g/dL
TBIL [3]: 0.3 mg/dL
TC [3]: 79.8 mg/dL
TG [3]: 46 mg/dL
TP [3]: 5.2 g/dL
gamma-GTP [3]: 0.2 IU/L
TERMINAL_BW [4]: 205.6 g
APTT [4]: 16.3 s
Bas [4]: 0%
Eos [4]: 1%
Fbg [4]: 205.6 mg/dL
Hb [4]: 12.7 g/dL
Ht [4]: 38.5%
Lym [4]: 81.2%
MCH [4]: 21.8 pg
MCHC [4]: 33.1%
MCV [4]: 65.9 fL
Mono [4]: 5.8%
Neu [4]: 12.4%
PT [4]: 11.6 s
Plat [4]: 106.5 x10_4/uL
RBC [4]: 585.2 x10_4/ul
Ret [4]: 11.1%
WBC [4]: 105.9 x10_2/uL
KIDNEY_L [4]: 1 g
KIDNEY_R [4]: 1 g
KIDNEY_TOTAL [4]: 2 g
LIVER [4]: 10.2 g
A/G [4]: 2.2
ALP [4]: 869.2 IU/L
ALT [4]: 39.4 IU/L
AST [4]: 67.2 IU/L
BUN [4]: 17.4 mg/dL
CRE [4]: 0.6 mg/dL
Ca [4]: 10.9 mg/dL
Cl [4]: 102.2 meq/L
DBIL [4]: 0.03 mg/dL
GLC [4]: 204.2 mg/dL
IP [4]: 8.4 mg/dL
K [4]: 4.5 meq/L
LDH [4]: 105.2 IU/L
Na [4]: 139.8 meq/L
PL [4]: 142.6 mg/dL
RALB [4]: 3.7 g/dL
TBIL [4]: 0.4 mg/dL
TC [4]: 79.4 mg/dL
TG [4]: 81.6 mg/dL
TP [4]: 5.4 g/dL
gamma-GTP [4]: 0.8 IU/L
TERMINAL_BW [5]: 194.9 g
APTT [5]: 17 s
Bas [5]: 0%
Eos [5]: 0.6%
Fbg [5]: 201.8 mg/dL
Hb [5]: 13 g/dL
Ht [5]: 39.5%
Lym [5]: 80.6%
MCH [5]: 21.3 pg
MCHC [5]: 32.8%
MCV [5]: 64.8 fL
Mono [5]: 6.4%
Neu [5]: 12.6%
PT [5]: 11.9 s
Plat [5]: 106.2 x10_4/uL
RBC [5]: 611.2 x10_4/ul
Ret [5]: 11.5%
WBC [5]: 94.5 x10_2/uL
KIDNEY_L [5]: 0.9 g
KIDNEY_R [5]: 0.9 g
KIDNEY_TOTAL [5]: 1.9 g
LIVER [5]: 9.2 g
A/G [5]: 2.3
ALP [5]: 955.4 IU/L
ALT [5]: 34 IU/L
AST [5]: 64.6 IU/L
BUN [5]: 13.2 mg/dL
CRE [5]: 0.4 mg/dL
Ca [5]: 10.6 mg/dL
Cl [5]: 103.6 meq/L
DBIL [5]: 0.018 mg/dL
GLC [5]: 184.6 mg/dL
IP [5]: 8.9 mg/dL
K [5]: 4.4 meq/L
LDH [5]: 108.4 IU/L
Na [5]: 137.8 meq/L
PL [5]: 135 mg/dL
RALB [5]: 3.7 g/dL
TBIL [5]: 0.4 mg/dL
TC [5]: 71.4 mg/dL
TG [5]: 57.8 mg/dL
TP [5]: 5.3 g/dL
gamma-GTP [5]: 1 IU/L
TERMINAL_BW [6]: 195.8 g
APTT [6]: 17.3 s
Bas [6]: 0%
Eos [6]: 1.2%
Fbg [6]: 211.8 mg/dL
Hb [6]: 13.1 g/dL
Ht [6]: 40%
Lym [6]: 69.2%
MCH [6]: 21.6 pg
MCHC [6]: 32.7%
MCV [6]: 66 fL
Mono [6]: 8.8%
Neu [6]: 20.6%
PT [6]: 11.8 s
Plat [6]: 109.7 x10_4/uL
RBC [6]: 607 x10_4/ul
Ret [6]: 11.3%
WBC [6]: 82.2 x10_2/uL
KIDNEY_L [6]: 0.9 g
KIDNEY_R [6]: 1 g
KIDNEY_TOTAL [6]: 1.9 g
LIVER [6]: 9 g
A/G [6]: 2.1
ALP [6]: 795 IU/L
ALT [6]: 32.2 IU/L
AST [6]: 64.6 IU/L
BUN [6]: 10.4 mg/dL
CRE [6]: 0.5 mg/dL
Ca [6]: 10.8 mg/dL
Cl [6]: 102.6 meq/L
DBIL [6]: 0.062 mg/dL
GLC [6]: 184.6 mg/dL
IP [6]: 9.2 mg/dL
K [6]: 4.6 meq/L
LDH [6]: 93.2 IU/L
Na [6]: 137.2 meq/L
PL [6]: 142.6 mg/dL
RALB [6]: 3.7 g/dL
TBIL [6]: 0.4 mg/dL
TC [6]: 77.8 mg/dL
TG [6]: 40.2 mg/dL
TP [6]: 5.4 g/dL
gamma-GTP [6]: 1.8 IU/L
TERMINAL_BW [7]: 189 g
APTT [7]: 16.4 s
Bas [7]: 0%
Eos [7]: 1.4%
Fbg [7]: 215.8 mg/dL
Hb [7]: 13.2 g/dL
Ht [7]: 40.1%
Lym [7]: 72.8%
MCH [7]: 21.2 pg
MCHC [7]: 32.9%
MCV [7]: 64.4 fL
Mono [7]: 8%
Neu [7]: 18.4%
PT [7]: 11.9 s
Plat [7]: 117.8 x10_4/uL
RBC [7]: 623.8 x10_4/ul
Ret [7]: 11.7%
WBC [7]: 70.8 x10_2/uL
KIDNEY_L [7]: 0.9 g
KIDNEY_R [7]: 0.9 g
KIDNEY_TOTAL [7]: 1.7 g
LIVER [7]: 8.5 g
A/G [7]: 2.3
ALP [7]: 780.6 IU/L
ALT [7]: 31 IU/L
AST [7]: 62.8 IU/L
BUN [7]: 13.2 mg/dL
CRE [7]: 0.6 mg/dL
Ca [7]: 10.5 mg/dL
Cl [7]: 103.6 meq/L
DBIL [7]: 0.078 mg/dL
GLC [7]: 178 mg/dL
IP [7]: 10.1 mg/dL
K [7]: 5 meq/L
LDH [7]: 113.8 IU/L
Na [7]: 138.4 meq/L
PL [7]: 146.4 mg/dL
RALB [7]: 3.8 g/dL
TBIL [7]: 0.4 mg/dL
TC [7]: 87.8 mg/dL
TG [7]: 50 mg/dL
TP [7]: 5.4 g/dL
gamma-GTP [7]: 1 IU/L
TERMINAL_BW [8]: 206.4 g
APTT [8]: 16 s
Bas [8]: 0%
Eos [8]: 1%
Fbg [8]: 199.4 mg/dL
Hb [8]: 13 g/dL
Ht [8]: 39.3%
Lym [8]: 79.8%
MCH [8]: 21.6 pg
MCHC [8]: 33%
MCV [8]: 65.5 fL
Mono [8]: 6.8%
Neu [8]: 12.6%
PT [8]: 11.8 s
Plat [8]: 108 x10_4/uL
RBC [8]: 599.6 x10_4/ul
Ret [8]: 9.9%
WBC [8]: 77.5 x10_2/uL
KIDNEY_L [8]: 1 g
KIDNEY_R [8]: 1 g
KIDNEY_TOTAL [8]: 1.9 g
LIVER [8]: 9.9 g
A/G [8]: 2.2
ALP [8]: 860.6 IU/L
ALT [8]: 37.4 IU/L
AST [8]: 69 IU/L
BUN [8]: 18 mg/dL
CRE [8]: 0.6 mg/dL
Ca [8]: 11 mg/dL
Cl [8]: 101.4 meq/L
DBIL [8]: 0.03 mg/dL
GLC [8]: 196.4 mg/dL
IP [8]: 9.1 mg/dL
K [8]: 4.6 meq/L
LDH [8]: 109.4 IU/L
Na [8]: 139.4 meq/L
PL [8]: 149.4 mg/dL
RALB [8]: 3.7 g/dL
TBIL [8]: 0.4 mg/dL
TC [8]: 83.8 mg/dL
TG [8]: 99 mg/dL
TP [8]: 5.3 g/dL
gamma-GTP [8]: 0.8 IU/L
